Experimental findings from ChEMBL document CHEMBL5728279, “Toll-like receptor 7 (TLR7) agonists having a pyridine or pyrazine moiety, conjugates thereof, and methods and uses therefor” (2021) are described below.

The test has as its target T1, Toll-like receptor 7 (Homo sapiens, UniProt Q9NYK1).
T1 sequence (Q9NYK1 whole entry): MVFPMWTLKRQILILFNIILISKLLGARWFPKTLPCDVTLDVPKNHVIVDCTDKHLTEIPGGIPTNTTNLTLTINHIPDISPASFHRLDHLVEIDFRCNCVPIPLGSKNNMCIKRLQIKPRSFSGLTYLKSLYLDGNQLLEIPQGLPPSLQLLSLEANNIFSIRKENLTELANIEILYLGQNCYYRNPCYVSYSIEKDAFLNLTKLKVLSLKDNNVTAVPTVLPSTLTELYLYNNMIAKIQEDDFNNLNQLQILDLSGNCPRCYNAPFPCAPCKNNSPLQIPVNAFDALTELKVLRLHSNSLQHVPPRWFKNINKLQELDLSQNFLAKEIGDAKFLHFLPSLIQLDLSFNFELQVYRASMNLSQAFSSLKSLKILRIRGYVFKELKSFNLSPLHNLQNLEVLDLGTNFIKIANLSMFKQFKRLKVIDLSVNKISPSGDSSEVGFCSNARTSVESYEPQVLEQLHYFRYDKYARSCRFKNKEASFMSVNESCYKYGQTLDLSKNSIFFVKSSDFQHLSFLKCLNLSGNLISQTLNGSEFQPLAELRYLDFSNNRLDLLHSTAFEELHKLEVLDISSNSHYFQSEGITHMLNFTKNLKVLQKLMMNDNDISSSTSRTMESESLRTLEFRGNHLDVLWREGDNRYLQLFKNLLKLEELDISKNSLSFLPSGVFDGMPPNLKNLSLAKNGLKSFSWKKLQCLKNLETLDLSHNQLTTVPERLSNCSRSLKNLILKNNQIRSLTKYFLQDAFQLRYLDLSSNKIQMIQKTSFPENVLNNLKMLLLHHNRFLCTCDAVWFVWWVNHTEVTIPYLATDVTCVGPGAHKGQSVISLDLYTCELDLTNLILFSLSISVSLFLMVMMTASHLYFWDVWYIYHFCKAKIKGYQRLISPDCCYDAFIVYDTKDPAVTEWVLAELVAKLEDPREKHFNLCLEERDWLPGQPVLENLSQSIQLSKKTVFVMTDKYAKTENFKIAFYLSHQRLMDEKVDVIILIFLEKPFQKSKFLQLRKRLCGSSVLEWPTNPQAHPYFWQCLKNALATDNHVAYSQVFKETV
Briefly: HEK-Blue™ TLR7 cells were added to each well of a 384-well tissue-culture plate (15,000 cells per well) and incubated 16-18 h at 37° C., 5% CO2. Compounds (100 nl) were dispensed into wells containing the HEK-Blue™ TLR cells and the treated cells were incubated at 37° C., 5% CO2. After 18 h treatment ten microliters of freshly-prepared Quanti-Blue™ reagent (Invivogen) was added to each well, incubated for 30 min (37° C., 5% CO2) and SEAP levels measured using an Envision plate reader (OD=620 nm).

The EC50 is the concentration needed to bring the measured effect to its halfway point. Higher therefore signals a need for much substance.

With `CCCCOc1nc(N)c2nc(O)n(Cc3ccc(CN4CCC(CN)CC4)nc3)c2n1`, a half-maximal response (EC50) required 4.9 nM.

`CCCCOc1nc(N)c2nc(O)n(Cc3ccc(CNCc4ccccc4)cn3)c2n1` registered an EC50 of 22 nM.

`CCCCCCNCc1ccc(Cn2c(O)nc3c(N)nc(OCCCC)nc32)cn1` registered a concentration giving a half-maximal response (EC50) of 11 nM.

In the case of `CCCCOc1nc(N)c2nc(O)n(Cc3ccc(CN4CCC(N)CC4)nc3)c2n1`, it took 3.1 nM to reach a half-maximal effect (EC50).

`CCCCOc1nc(N)c2nc(O)n(Cc3ccc(CNC4CCCC4)nc3)c2n1` showed a 50% effective concentration (EC50) of 2.9 nM.

As for `CCCCOc1nc(N)c2nc(O)n(Cc3ccc(CNCc4ccccc4)nc3)c2n1`, the EC50 is 110 nM.
